Data reported in US20240409571A1 (priority 2023, published 2024).

Assays:
[1] = system: CjCst-I; format: biochemical, Campylobacter jejuni
[2] = system: CjCst-II; format: biochemical, Campylobacter jejuni

SMILES	activity towards sialylating [1]	Sialylation by CjCst-II, acceptor GM3ßSph [2]	Sialylation by CjCst-II, acceptor GM3βProN3 [2]
CCCCCCCCCCCCC/C=C/[C@@H](O)[C@@H](N)CO [GD1b sphingosine]	very good activity	–	–
CC(=O)N[C@H]1[C@H](O)[C@H](NC(C)=O)C(O)O[C@@H]1CO (stereo partly drawn) [ManNAc4NAc, 4-acetamido-4-deoxy-N-acetylmannosamine]	–	No reaction	No reaction
